Measurements reported in PMC7395068, “The evolution of strategies to minimise the risk of human drug-induced liver injury (DILI) in drug discovery and development” (Archives of Toxicology, 2020).
Where two headings read alike, the source gives them in different places.

Key:
[1] = tested on: primary human hepatocytes, NIH3T3 fibroblasts, BSEP, CYP3A4; settings: cited from earlier work
hLiMTs [2] = tested on: hLiMTs
HepG2 cells [3] = settings: cited from earlier work
[4] = cited from earlier work
hLiMTs [5] = settings: cited from earlier work
hLiMTs [6] = assay: Combined HCI (HCS) and cellular ATP 3D assay in hLiMTs; settings: for AC50 / minimal effective concentration: Homo sapiens
[7] = tested on: isolated mouse liver mitochondria; settings: In vitro Assay; ref Porceddu 2012; cited from earlier work
[8] = ref Chen 2011; cited from earlier work
[9] = tested on: THLE-Null and THLE-3A4 cells; settings: In vitro Assay; ref Gustafsson 2014; cited from earlier work
HepG2 cells [10] = settings: cited from earlier work; remark: listed apart in the source
[11] = plasma free fraction; cited from earlier work
[12] = Plasma free fraction (fu) and unbound Cmax (Cmax,u); format: in vitro ADME, human; settings: unbound plasma Cmax
Procedure: The prediction of DILI severity was evaluated further using the 3D combined HCI assays using plasma-free fraction. The majority of fu values were obtained from literature, when unavailable in-house prediction was utilised. Unbound plasma Cmax concentrations (Cmax,u) were derived by multiplying total plasma Cmax with the corresponding free fraction (fu) for each compound.

[13] = cited from earlier work; remark: listed apart in the source
rBsep = settings: In vitro Assay; ref Dawson 2012; cited from earlier work
HepaRG spheroids [14] = assay: Combined HCI (HCS) and cellular ATP 3D assay in HepaRG spheroids; settings: HepaRG; for AC50 / minimal effective concentration: Homo sapiens
[15] = tested on: HepG2 cells, primary human hepatocytes; settings: In vitro Assay; ref Garside 2014; cited from earlier work
Upcyte human hepatocytes = settings: In vitro Assay; ref Tolosa 2019; cited from earlier work
PHH spheroids = settings: cited from earlier work
PHH = settings: cited from earlier work
HepaRG spheroids [16] = tested on: HepaRG spheroids
[17] = read-out: Human plasma Cmax; total plasma Cmax.tot, median of 9 literature references; cited from earlier work
[18] = In vitro Assay, ref Persson 2013
[19] = In vitro Assay, ref Proctor 2017

CC(=O)N1CCN(c2ccc(OCC3COC(Cn4ccnc4)(c4ccc(Cl)cc4Cl)O3)cc2)CC1 (stereo not drawn) [ketoconazole, reference compound]
Cellular toxicity (3T3 cells) [1]: -VE | Combined Assay [1]: +VE | DILI in vitro assay prediction, Schadt (2015) [1]: +VE | GSH adduct HML [1]: -VE | Hepatocyte cellular toxicity [1]: +VE | MitoTox 3T3 [1]: -VE | TDI CYP3A4 [1]: -VE | hBSEP inhibition [1]: +VE | DILI prediction hLiMTs (HCS-MEC) (hLiMTs [2]): +VE (key: +VE: MEC < 25 × Cmax.tot cut-off) | Cluser analysis (HepG2 cells [3]; [18]): +VE | Structural based (HCI) (HepG2 cells [3]; [18]): +VE | DILI in vitro assay prediction, Persson (2013) (HepG2 cells [3]; Structural based (HCI), HepG2, ref Persson et al. 2013): +VE | DILI severity category (Chen et al. [2016]) ([4]; LTKB DILIrank category, ref Chen et al. 2016): Most | DILI severity category (Chen 2016) ([4]; human DILI classification, LTKB DILIrank, ref Chen et al. 2016): Most | DILI severity category ([4]; human DILI severity, ref Chen et al.): Most | DILI +VE (5-8), DILI -VE (-4) ([4]; ref Chen 2016): +VE | DILI severity category ([4]; ref Chen 2016): vMost-DILI-Concern | hLiMTs ATP <100uM (hLiMTs [5]; [19]): +VE (IC50 threshold of 100 µM) | hLiMTs/100uM, Proctor (2017) (hLiMTs [5]; hLiMTs, ATP, IC50 threshold 100 µM, ref Proctor et al. 2017): +VE (IC50 threshold of 100 µM) | AC50 (hLiMTs [6]; read-out: ATP endpoint AC50): 9.09 µM | minimal effective concentration (hLiMTs [6]; read-out: ATP endpoint MEC): 6.84 µM | AC50 (hLiMTs [6]; read-out: HCS endpoint AC50): 12.4 µM | minimal effective concentration (hLiMTs [6]; read-out: HCS endpoint MEC): 5.88 µM | hLiMTs <25x Avg Cmax ATP (hLiMTs [6]; hLiMTs, ATP endpoint, cut-off <25x Avg Cmax): +ve | hLiMTs <100x Avg Cmaxu ATP (hLiMTs [6]; hLiMTs, ATP endpoint, cut-off <100x Avg Cmaxu): +ve (<100x Avg Cmaxu) | hLiMTs <25x Avg Cmax HCS (hLiMTs [6]; hLiMTs, HCS endpoints, cut-off <25x Avg Cmax): +ve | hLiMTs <100x Avg Cmaxu HCS (hLiMTs [6]; hLiMTs, HCS endpoints, cut-off <100x Avg Cmaxu): +ve (<100x Avg Cmaxu) | hLiMTs <25x Avg Cmax All (hLiMTs [6]; hLiMTs, all endpoints (ATP and HCS), cut-off <25x Avg Cmax): +ve | hLiMTs Cmax max All (hLiMTs [6]; hLiMTs, all endpoints, Cmax max used): +ve | hLiMTs Cmax min All (hLiMTs [6]; hLiMTs, all endpoints, Cmax min used): +ve | hLiMTs <10 uM All (hLiMTs [6]; hLiMTs, all endpoints, cut-off <10 uM): +ve (<10 uM) | hLiMTs <100x Avg Cmaxu All (hLiMTs [6]; hLiMTs, all endpoints, cut-off <100x Avg Cmaxu): +ve (<100x Avg Cmaxu) | in vitro data EC2<=1x Cmax [7]: +VE | in vitro data EC20<=2uM [7]: -VE | DILI Score (FDA) (1-8) [8]: 8 | THLE-Null [9]: +VE | Structural based (HCI) (HepG2 cells [10]; In vitro Assay, ref O'Brien 2006): +VE | DILI in vitro assay prediction, O'Brien (2006) (HepG2 cells [10]; Structural based (HCI), HepG2, ref O'Brien et al. 2006): +VE (lowest HCI endpoint IC50 (or in the absence of dose–response < 100 µM) < 30 × total human plasma exposure levels (Cmax.tot)) | fu [11]: 0.050 | Human plasma Cmax,u [12]: 0.565 µM | Assigned DILI category ([13]; Chen et al. 2016 or literature alignment, ref Chen et al. 2016): 3 | In vivo DILI ([13]; […]): +VE | In vivo DILI ([13]; ref Albrecht 2019): +VE | In vivo DILI ([13]; ref Aleo 2019): +VE | In vivo DILI ([13]; ref Dawson 2012): +VE | In vivo DILI ([13]; ref Garside 2014): +VE | In vivo DILI ([13]; ref Gustafsson 2014): +VE | In vivo DILI ([13]; ref O'Brien 2006): +VE | In vivo DILI ([13]; ref Persson 2013): +VE | In vivo DILI ([13]; ref Porceddu 2012): +VE | In vivo DILI ([13]; ref Proctor 2017): +VE | In vivo DILI ([13]; ref Schadt 2015): +VE | In vivo DILI ([13]; ref Tolosa 2019): +VE | In vivo DILI ([13]; ref Vorrink 2018): +VE | In vivo DILI ([13]; ref Williams 2019): +VE | Inhibition of rBsep cutoff<1& cmax u>.2 (rBsep): +VE | Inhibition of rBsep cutoff<3 (rBsep): +VE | HepaRG <25x Avg Cmax ATP (HepaRG spheroids [14]; ATP endpoint, cut-off <25x Avg Cmax): +ve | HepaRG <100x Avg Cmaxu ATP (HepaRG spheroids [14]; ATP endpoint, cut-off <100x Avg Cmaxu): +ve (<100x Avg Cmaxu) | HepaRG <25x Avg Cmax HCS (HepaRG spheroids [14]; HCS endpoints, cut-off <25x Avg Cmax): +ve | HepaRG <100x Avg Cmaxu HCS (HepaRG spheroids [14]; HCS endpoints, cut-off <100x Avg Cmaxu): +ve (<100x Avg Cmaxu) | HepaRG <25x Avg Cmax All (HepaRG spheroids [14]; all endpoints (ATP and HCS), cut-off <25x Avg Cmax): +ve | HepaRG Cmax max All (HepaRG spheroids [14]; all endpoints, Cmax max used): +ve | HepaRG Cmax min All (HepaRG spheroids [14]; all endpoints, Cmax min used): +ve | HepaRG <10 uM All (HepaRG spheroids [14]; all endpoints, cut-off <10 uM): +ve (<10 uM) | HepaRG <100x Avg Cmaxu All (HepaRG spheroids [14]; all endpoints, cut-off <100x Avg Cmaxu): +ve (<100x Avg Cmaxu) | AC50 (HepaRG spheroids [14]; read-out: ATP endpoint AC50): 8.42 µM | minimal effective concentration (HepaRG spheroids [14]; read-out: ATP endpoint MEC): 7.27 µM | AC50 (HepaRG spheroids [14]; read-out: HCS endpoint AC50): 15.4 µM | minimal effective concentration (HepaRG spheroids [14]; read-out: HCS endpoint MEC): 0.713 µM | Cluster 1-6 +VE Assay [15]: +VE | Upcytes multi donor assay 14day data (Upcyte human hepatocytes): +VE | hLiMTs ATP <20 x Cmax (PHH spheroids; In vitro Assay, ref Vorrink 2018): +VE (IC20 < 20 × Cmax.tot cut-off) | DILI in vitro assay prediction, Vorrink (2018) (PHH spheroids; PHH spheroids, ATP, 14 days, IC20 < 20 × Cmax.tot, ref Vorrink et al. 2018): +VE (IC20 < 20 × Cmax.tot cut-off) | PHH/100uM, Proctor (2017) (PHH; 2D PHH, ATP, IC50 threshold 100 µM, ref Proctor et al. 2017): +VE (IC50 threshold of 100 µM) | PHH ATP <100uM (PHH; [19]): +VE (IC50 threshold of 100 µM) | DILI prediction HepaRG spheroids (HCS-MEC) (HepaRG spheroids [16]): +VE (key: +VE: MEC < 25 × Cmax.tot cut-off) | Cmax [17]: 11.3 µM
